# Experimental data reported in patent US20100022559A1, “BISOXIMES AS FUNGICIDES” (BAYER CROPSCIENCE AG, priority 2006, published 2010).
# Assay: logP determination by HPLC on a reversed-phase column (C 18), EEC Directive 79/831 Annex V.A8
# Type: physicochemical
# Conditions: method marker [a] (footnote not shown); isomer A / isomer B / isomer mixture as noted in the cell
# Method: The stated logP values were determined in accordance with EEC Directive 79/831 Annex V.A8 by HPLC (high performance liquid chromatography) on a reversed-phase column (C 18). Temperature: 43° C.
row,logP,Compound
1,4.31^[a],CCOC(=O)C(=NOCCCON=C(C(=O)OCC)c1cccc(C)n1)c1cccc(C)n1 [compound 76]
2,5.99^[a],CC(=NOCCCON=C(C)c1cccc(Br)n1)c1cccc(Br)n1 [compound 80]
3,4.00^[a],CC(=NOCC(F)(F)CON=C(C)c1cccc(C)n1)c1cccc(C)n1 [compound 86]
4,4.22^[a],CC(=NOCCCON=C(C)c1nc(C)cs1)c1nc(C)cs1 [compound 87]
5,5.96^[a],Cc1cccnc1C(CC(C)C)=NOCCCON=C(CC(C)C)c1ncccc1C [compound 93]
6,5.88^[a],CC(=NOCC(C)CON=C(C)c1cc(C(C)(C)C)ccn1)c1cc(C(C)(C)C)ccn1 (stereo not drawn) [compound 104]
7,3.62^[a],CCc1ccnc(C(C)=NOCC(C)CON=C(C)c2cc(CC)ccn2)c1 (stereo not drawn) [compound 105]
8,4.79^[a],CC(=NOCC(C)CON=C(C)c1ccc(Cl)nc1)c1ccc(Cl)nc1 (stereo not drawn) [compound 106]
9,3.12^[a],CC(=NOCC(C)CON=C(C)c1ncccc1C)c1ncccc1C (stereo not drawn) [compound 128]
10,4.59^[a],C=CCCC(=NOCCCON=C(CCC=C)c1ncccc1C)c1ncccc1C [compound 129]
11,5.06^[a],C=CCCC(=NOCC(C)CON=C(CCC=C)c1ncccc1C)c1ncccc1C (stereo not drawn) [compound 130]
12,5.74^[a],CC(=NOCCCON=C(C)c1cc(-c2ccccc2)ccn1)c1cc(-c2ccccc2)ccn1 [compound 132]
13,3.67^a],CC(=NOCC(C)CON=C(C)c1ccc(C)cn1)c1ccc(C)cn1 (stereo not drawn) [compound 133]
14,3.08^[a],Cc1cccc(C(CS(C)(=O)=O)=NOCC(C)CON=C(CS(C)(=O)=O)c2cccc(C)n2)n1 (stereo not drawn) [compound 137]
15,6.22^a],Cc1cccc(C(=NOCC(C)CON=C(c2cccc(C)n2)C(C)C)C(C)C)n1 (stereo not drawn) [compound 138]

# Same assay, conditions: method marker [b]; isomer A / isomer B / isomer mixture as noted in the cell
row,logP,Compound
1,2.21^[b],CC(=NOCCON=C(C)c1ccccn1)c1ccccn1 [compound 30]
2,2.67^[b],CC(=NOCCCON=C(C)c1ccccn1)c1ccccn1 [compound 31]
3,1.51^[b],CC(=NOCCCON=C(C)c1cccnc1)c1cccnc1 [compound 33]
4,1.71^[b],CC(=NOCCON=C(C)c1cc(C)ccn1)c1cc(C)ccn1 [compound 34]
5,1.94^[b],CC(=NOCCCON=C(C)c1cc(C)ccn1)c1cc(C)ccn1 [compound 35]
6,2.58^[b],Cc1nc(/C(N)=N/OCCCCO/N=C(\N)c2nc(C)c3c(n2)CCCC3)nc2c1CCCC2 [compound 36]
7,1.75^[b],COCc1nc(/C(N)=N/OCCCCO/N=C(\N)c2nc(COC)c(C)c(COC)n2)nc(COC)c1C [compound 37]
8,2.45^[b],N/C(=N\OCCCCO/N=C(\N)c1ncc(F)cc1F)c1ncc(F)cc1F [compound 38]
9,2.29^[b],Cc1nc(/C(N)=N/OCO/N=C(\N)c2nc(C)c3c(n2)CCCC3)nc2c1CCCC2 [compound 39]
10,1.35^[b],COCc1nc(/C(N)=N/OCO/N=C(\N)c2nc(COC)c(C)c(COC)n2)nc(COC)c1C [compound 40]
11,2.36^[b],Cc1nc(/C(N)=N/OCO/N=C(\N)c2nc(C)c(Cl)c(C)n2)nc(C)c1Cl [compound 41]
12,2.92^[b],N/C(=N\OCO/N=C(\N)c1nc(C2CC2)cc(C2CC2)n1)c1nc(C2CC2)cc(C2CC2)n1 [compound 42]
13,2.67^[b],C=C(CO/N=C(\N)c1nc(C)c2c(n1)CCCC2)CO/N=C(\N)c1nc(C)c2c(n1)CCCC2 [compound 43]
14,1.83^[b],C=C(CO/N=C(\N)c1nc(COC)c(C)c(COC)n1)CO/N=C(\N)c1nc(COC)c(C)c(COC)n1 [compound 44]
15,2.42^[b],C=C(CO/N=C(\N)c1ncc(F)cc1F)CO/N=C(\N)c1ncc(F)cc1F [compound 45]
16,2.84^[b],C=C(CO/N=C(\N)c1nc(C)c(Cl)c(C)n1)CO/N=C(\N)c1nc(C)c(Cl)c(C)n1 [compound 46]
17,3.33^[b],C=C(CO/N=C(\N)c1nc(C2CC2)cc(C2CC2)n1)CO/N=C(\N)c1nc(C2CC2)cc(C2CC2)n1 [compound 47]
18,6.51^[b],CC(=NOCCON=C(C)c1cnc(-c2ccccc2)s1)c1cnc(-c2ccccc2)s1 [compound 48]
19,7.07^[b],CC(=NOCCCON=C(C)c1cnc(-c2ccccc2)s1)c1cnc(-c2ccccc2)s1 [compound 49]
20,4.35^[b],CC(=NOCCON=C(C)c1nc(C)c(C)s1)c1nc(C)c(C)s1 [compound 50]
21,5.03^[b],CC(=NOCCCON=C(C)c1nc(C)c(C)s1)c1nc(C)c(C)s1 [compound 51]
22,3.63^[b],CC(=NOCCON=C(C)c1nc(C)cs1)c1nc(C)cs1 [compound 52]
23,2.70^[b],CC(=NOCCON=C(C)c1sc(C)nc1C)c1sc(C)nc1C [compound 53]

row,logP,Compound
1,3.10^[b],CC(=NOCCCON=C(C)c1sc(C)nc1C)c1sc(C)nc1C [compound 54]
2,5.39^[b],CC(=NOCCON=C(C)c1ncc(Cl)cc1Cl)c1ncc(Cl)cc1Cl [compound 55]
3,5.78^[b],CC(=NOCCCON=C(C)c1ncc(Cl)cc1Cl)c1ncc(Cl)cc1Cl [compound 56]
4,1.87^[b],Cc1cc(C)nc(/C(N)=N/OCO/N=C(\N)c2cc(C)cc(C)n2)c1 [compound 58]
5,3.00^[b],C=C(CON=C(C)c1ccccn1)CON=C(C)c1ccccn1 [compound 60]
6,6.51^[b],C=C(CON=C(C)c1ccc2ccccc2n1)CON=C(C)c1ccc2ccccc2n1 [compound 63]
7,3.17^[b],C=C(CON=C(C)c1nc(C)cc(OC)n1)CON=C(C)c1nc(C)cc(OC)n1 [compound 64]
8,2.90^[b],C=C(CON=C(C)c1ncccc1C)CON=C(C)c1ncccc1C [compound 65]
9,2.20^[b],CC(=NOCC(=O)CON=C(C)c1cccc(C)n1)c1cccc(C)n1 [compound 71]
10,7.36^[b],CC(=NOCCCCCCCCCCON=C(C)c1cccc(C)n1)c1cccc(C)n1 [compound 74]
11,4.31^[b],C=C(CON=C(C)c1cccs1)CON=C(C)c1nccs1 [compound 78]
12,1.91^[b],CC(=NOCC(CON=C(C)c1cccc(C)n1)=NO)c1cccc(C)n1 [compound 82]
13,3.54^[b],Cc1nc(C(N)=NOCC(C)CON=C(N)c2csc(C)n2)cs1 (stereo not drawn) [compound 83]
14,3.26^[b],CON=C(CON=C(C)c1cccc(C)n1)CON=C(C)c1cccc(C)n1 [compound 113]
15,5.15^[b],C=C(CON=C(C)c1cccc(C(C)=O)n1)CON=C(C)c1cccc(C(C)=O)n1 [compound 120]
16,2.67^[b],Cc1cc(C)nc(C(N)=NOCCCCON=C(N)c2cc(C)cc(C)n2)c1 [compound 123]
17,3.00^[b],CC(=NOCCCCON=C(C)c1ccccn1)c1ccccn1 [compound 124]
18,5.59^[b],CC(=NOCCCCON=C(C)c1nc(C)c(C)s1)c1nc(C)c(C)s1 [compound 125]
19,4.46^[b],CC(=NOCON=C(C)c1nc(C)c(C)s1)c1nc(C)c(C)s1 [compound 126]
20,2.7^[b],C=C(CON=C(N)c1cc(C)cc(C)n1)CON=C(N)c1cc(C)cc(C)n1 [compound 127]
21,3.64^[b],C=C(CON=C(C)c1ncccc1Cl)CON=C(C)c1ncccc1Cl [compound 144]
22,5.89^[b],C=C(CON=C(C)c1cccc(OC)n1)CON=C(C)c1cccc(OC)n1 [compound 145]
